{"source": "patent US8658611B2", "about": "“Apoptosis-inducing agent for prostate cancer cells” (priority 2005, dated 2014)", "key": {"[1]": {"tested_on": "Normal cells OUMS 24 (human immortalized fibroblast)", "assay": "TUNEL staining after Ad-REIC plus HSP70 inhibitor or inducer", "format": "cell-based", "details": "OUMS24; Ad-REIC 20 MOI; agent 250 mM added 24 hours later; TUNEL 48 hours later"}, "[2]": {"tested_on": "prostate cancer cells PC3", "assay": "TUNEL staining after Ad-REIC plus HSP70 inhibitor or inducer", "format": "cell-based, human", "details": "Ad-REIC 20 MOI, agent 250 mM added 24 hours later, TUNEL 48 hours later", "protocol": "Normal cells OUMS 24 (human immortalized fibroblast) and prostate cancer cells PC3 were used for comparison. The cells were infected with Ad-REIC at 20 MOI. 24 hours later, an HSP70 inhibitor (heat shock protein inhibitor I, CALBIOCHEM, BIOCHEMICALS) and an HSP70 inducer (Geranyl-Geranyl Acetone) (250 mM each) were separately added to a culture solution. 48 hours later, TUNEL staining was performed to determine influence upon apoptosis. FIGS. 12 and 13 show staining images for OUMS24 and of PC3, respectively. In FIGS. 12 and 13, images on the left side indicate TUNEL-staining results and images on the right side indicate DAPI-staining results. […] That is, apoptosis was induced in normal cells with the use of the HSP70 inhibitor in combination. On the other hand, apoptosis expression was inhibited in cancer cells with the use of the HSP70 inducer in combination. Further, apoptosis induction was promoted with the use of the HSP70 inhibitor in combination."}}, "data": [{"smiles": "O=CN1CC/C(=C\\c2ccc3c(c2)OCO3)C1=O", "note": "[HSP70 inhibitor]", "values": [{"measurement": "TUNEL-positive cells with combined use with Ad-REIC", "setting": "[1]", "value": "a large number of TUNEL-positive cells"}, {"measurement": "TUNEL-positive cells with combined use with Ad-REIC, versus Ad-REIC alone", "setting": "[2]", "value": "greater than that obtained with the use of Ad-REIC alone"}]}]}
